Measured values reported in US20220048987A1, “METHOD OF TREATMENT TO PREVENT OR REVERSE AGE-ASSOCIATED INFLAMMATION, COGNITIVE DECLINE, AND NEURODEGENERATION” (The Board of Trustees of the Leland Stanford Junior …, priority 2020, published 2022).

Key:
[1] = system: human monocyte-derived macrophages (human MDMs); test: Real-time oxygen consumption rate (OCR) and ECAR (Seahorse) in human MDMs; format: cell-based; settings: human MDMs, dose response, 20 h
Procedure: Cells were plated at 1.8×10^6 cells per well in a Seahorse XF24 Cell Culture Microplate (Agilent). Cells were then treated with indicated inhibitors or agonists in each experiment for 20 h. Cells were washed twice with Agilent Seahorse XF Media (Agilent) supplemented with 1 mM pyruvate, 2 mM L-glutamine, and 10 mM D-glucose; a final volume of 525 μl was placed in each well. Cells were then incubated in a 0% CO2 chamber at 37° C. for 1 h before being placed into a Seahorse XFe24 Analyzer (Agilent). For OCR and ECAR mitostress test experiments, cells were treated with 1 μM oligomycin, 2 μM carbonyl cyanide p-trifluoromethoxyphenylhydrazone (FCCP), and 0.5 μM rotenone/antimycin (indicated by three black arrows in each seahorse trace). For mitoFlex Fuel test experiments, cells were treated with UK5099 (200 μM) and BPTES (200 μM)/Etomoxir (80 μM). A total of three OCR and pH measurements were taken after each compound was administered. All Seahorse experiments were repeated at least three times unless otherwise indicated. All OCR and ECAR data were normalized to cell number per well using CyQUANT (ThermoFisher Scientific, Waltham, Mass., USA).
Peripheral blood mononuclear cells from de-identified healthy donors (young<35 years old, aged>65 years old) were obtained from the Stanford Blood Center and transferred to 50 ml conical tubes. Samples were diluted with 20 ml PBS and layered onto 10 ml of Ficoll-Paque (GE Healthcare) using a Pasteur pipette. Tubes were centrifuged at 1,500 r.p.m. for 25 min without brake at 20° C. The mononuclear cell layer was transferred to a new 50 ml conical tube, resuspended in 50 ml 1×PBS and centrifuged at 1500 r.p.m. for 10 min, repeated twice. After centrifugation, monocytes were isolated using a Monocyte Isolation Kit, human (MACS; Miltenyi Biotech). Cells were then plated 10×10^6 per 10-cm petri dish and differentiated for 7 days in Roswell Park Memorial Institute (RPMI) media supplemented with 10% FBS, 1% penicillin-streptomycin, and 50 ng ml^−1 M-CSF (Peprotech).

aged mice = test: Spatial memory: Novel Object Location and Barnes Maze tasks; format: in vivo, mouse; settings: aged (20-22 mo) mice, 2.5 mg/kg/d, 6 weeks
Procedure: The Novel Object Location protocol was adopted from Wimmer et al. with minor modifications. Mice interacted with the chamber (a 16 in×16 in×15 in white box made from PVC) over the course of 2 days involving 1 habituation period, 3 training sessions, and 1 testing session. On the day of training (day 1) mice were placed in the middle of an empty chamber and given 5 minutes to explore the chamber. Mice were then placed in an independent holding cage for an inter-training interval (ITI) of 3 minutes. The objects used were a plastic bottle and seasoning shaker of similar size (3 in H×1 in W×1 in L). After the habituation session, the mice then underwent three 10-minute training sessions each with a 3 min ITI in between sessions. […] Animals were recorded a JVC Everio HD camcorder GZE200 and analyzed with Kinovea video tracking software. Exploration of the objects was defined as the amount of time mice were oriented toward an object with its nose within 1 cm of it, and was scored by an experimenter blind to experimental group. […]
After testing each mouse, the maze was cleaned with 70% ethanol and rotated clockwise after every mouse to avoid intra-maze odor or visual cues. All sessions were recorded using a JVC Everio HD camcorder GZ-E200 and analyzed with Kinovea video tracking software. […]

[2] = Measurement of PF04418948 in plasma and brain (LC/MS/MS); format: in vivo, mouse; settings: aged (20-22 mo) mice, 2.5 mg/kg/d, 6 weeks, perfused brain
Procedure: Presence of PF04418948 was measured in aged (20-22 mo) mice treated with PF04418948 2.5 mg/kg/d for 6 weeks in plasma and perfused brain by LC/MS/MS at Quintara Discovery (Hayward, Calif., USA). In brief, brain samples were first homogenized in 2 volumes of ice-cold water, then further 2 fold diluted in blank plasma. An aliquot of 20 μL of each plasma sample or plasma diluted tissue homogenate was treated with 100 μL of acetonitrile containing internal standard (Terfenadine). The mixture was vortexed on a shaker for 15 minutes and subsequently centrifuged at 4000 rpm for 15 minutes. An aliquot of 70 μL of the extract was transferred to an injection plate and reconstituted in 70 μL of water for LC/MS/MS injection. Calibration standards and quality control samples were prepared by spiking the testing compound into blank plasma followed by processing with the samples.

COc1ccc2cc(OCC3(C(=O)O)CN(C(=O)c4ccc(F)cc4)C3)ccc2c1 [PF-04418948]
ECAR (extracellular acidification rate, glycolysis) [1]: increased | basal OCR (oxygen consumption) [1]: increased | hippocampal memory function (aged mice): restored hippocampal memory function as well as LTP to youthful levels | brain level (whole brain lysates) [2]: not detected
